Reference: patent US20060115815A1 (priority 2002, published 2006)
pEC50, pIC50: −log10 of the molar value. Like-named read-outs stand apart in the source and are kept apart here.

Legend:
[1] = system: 46I50V; parameters: species or system HIV-1; details: MT-4, 46I50V; read-out: Cell-based assay (MT-4) EC50/nM 46I50V
[2] = system: 30N82I88D; parameters: species or system HIV-1; details: MT-4, 30N82I88D; read-out: Cell-based assay (MT-4) EC50/nM 30N82I88D
[3] = system: mutant HIV-1 with I84V/L90M mutations in the protease gene; type: cell-based; details: MT-4, 84V90M; read-out: Cell-based assay (MT-4) EC50/nM 84V90M
[4] = system: 48V54V82S; parameters: species or system HIV-1; details: MT-4, 48V54V82S; read-out: Cell-based assay (MT-4) EC50/nM 48V54V82S
[5] = system: 48V82A90M; parameters: species or system HIV-1; details: MT-4, 48V82A90M; read-out: Cell-based assay (MT-4) EC50/nM 48V82A90M
[6] = system: 48V54V82A; parameters: species or system HIV-1; details: MT-4, 48V54V82A; read-out: Cell-based assay (MT-4) EC50/nM 48V54V82A
[7] = system: MT-2 cells
[8] = system: wild-type HIV-1 strain IIIB; assay: microbe, parasite or virus in culture; type: cell-based; details: read-out: EC50
[9] = system: WT HIV-1; assay: microbe, parasite or virus in culture; type: cell-based; details: MT-4, WT; read-out: Cell-based assay (MT-4) EC50/nM WT
[10] = target: T1, GS-7340 Ester Hydrolase (Homo sapiens, UniProt P10619); assay: biochemical
T1 construct: from tissue; host or cells: human peripheral blood mononuclear cells (extract and column pools)
T1 sequence (P10619 29-326 limits assumed): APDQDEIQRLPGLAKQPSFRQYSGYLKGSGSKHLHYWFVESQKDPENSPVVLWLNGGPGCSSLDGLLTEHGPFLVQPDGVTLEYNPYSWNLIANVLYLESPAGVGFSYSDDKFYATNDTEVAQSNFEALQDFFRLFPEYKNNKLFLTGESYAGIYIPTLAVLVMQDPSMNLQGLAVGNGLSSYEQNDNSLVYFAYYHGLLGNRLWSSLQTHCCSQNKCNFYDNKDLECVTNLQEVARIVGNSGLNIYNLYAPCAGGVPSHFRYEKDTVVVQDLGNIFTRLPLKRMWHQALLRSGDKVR
T1 sequence (P10619 327-480 limits assumed): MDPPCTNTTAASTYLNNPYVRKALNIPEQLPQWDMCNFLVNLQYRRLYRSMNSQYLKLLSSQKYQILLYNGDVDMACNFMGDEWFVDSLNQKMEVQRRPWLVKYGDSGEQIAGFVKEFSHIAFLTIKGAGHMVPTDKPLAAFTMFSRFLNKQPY

[11] = target: T2, 84V90M (Human immunodeficiency virus type 1 group M subtype B, UniProt P04585, I572V/L578M); assay: Enzymatic assay, IC50 against 84V90M mutant protease; type: biochemical, HIV-1
[12] = target: recombinant HIV-1 protease (Human immunodeficiency virus type 1 group M subtype B, UniProt P04585); assay: biochemical; type: biochemical; details: read-out: Enzymatic assay WT IC50/nM
[13] = system: 30N82I88D; assay: microbe, parasite or virus in culture; type: cell-based, HIV-1; details: Human immunodeficiency virus 1, read-out: Cell-based assay (MT-4) EC50 30N82I88D
[14] = system: 46I50V; assay: microbe, parasite or virus in culture; type: cell-based, HIV-1; details: Human immunodeficiency virus 1, read-out: Cell-based assay (MT-4) EC50 46I50V
[15] = system: 48V54V82S; assay: microbe, parasite or virus in culture; parameters: species or system HIV-1; details: Human immunodeficiency virus 1, read-out: Cell-based assay (MT-4) EC50 48V54V82S
[16] = system: 48V54V82A; assay: microbe, parasite or virus in culture; type: cell-based, HIV-1; details: Human immunodeficiency virus 1, read-out: Cell-based assay (MT-4) EC50 48V54V82A
[17] = system: WT; assay: microbe, parasite or virus in culture; type: cell-based, HIV-1; details: Human immunodeficiency virus 1, read-out: Cell-based assay (MT-4) EC50 WT
[18] = target: T2, 84V90M; assay: biochemical; parameters: species or system HIV-1
[19] = system: 48V82A90M; assay: microbe, parasite or virus in culture; parameters: species or system HIV-1; details: Human immunodeficiency virus 1, read-out: Cell-based assay (MT-4) EC50 48V82A90M
[20] = target: T2, 84V90M; assay: cell-based; parameters: species or system HIV-1

SMILES: CCOP(=O)(CCNC(=O)Oc1ccc(C[C@@H]2[C@H](O)[C@@H](O)[C@@H](Cc3ccc(OC)cc3)N(Cc3cccc(N)c3)C(=O)N2Cc2cccc(N)c2)cc1)OCC [R=OCH3, R1=Ph-mNH2, R2=OCONH(CH2)2PO3Et2]
- EC50 [1]: 184 nM
- EC50 [2]: 77 nM
- EC50 [3]: 2260 nM
- EC50 [4]: 214 nM
- EC50 [5]: 215 nM
- EC50 [6]: 262 nM

SMILES: CCOP(=O)(COc1ccc(C[C@H](NC(=O)O[C@H]2CO[C@H]3OCC[C@H]32)[C@H](O)CN(CC(C)C)S(=O)(=O)c2ccc(OC)cc2)cc1)OCC [Compound 13]
- CC50 [7]: 50 µM

SMILES: CCOC(=O)C(C)OP(=O)(CCNCc1ccc(C[C@H](NC(=O)O[C@H]2CO[C@H]3OCC[C@H]32)[C@H](O)CN(CC(C)C)S(=O)(=O)c2ccc(OC)cc2)cc1)Oc1ccccc1 (stereo partly shown) [drawing 662 R1=Ph R2=Lac-Et]
- CC50 [7]: > 50 µM
- pEC50 [8]: 6.30 to 7.30

SMILES: CCOP(=O)(CCNC(=O)Oc1ccc(C[C@@H]2[C@H](O)[C@@H](O)[C@@H](Cc3ccc(OC)cc3)N(Cc3ccc(O)cc3)C(=O)N2Cc2ccc(O)cc2)cc1)OCC [R=OCH3, R1=Ph-pOH, R2=OCONH(CH2)2PO3Et2]
- EC50 [9]: 33 nM
- EC50 [1]: 223 nM
- EC50 [2]: 31 nM
- EC50 [3]: 495 nM
- EC50 [4]: 51 nM
- EC50 [5]: 55 nM

SMILES: O=c1oc(Cl)c(Cl)c2ccccc12 [3,4-DCI, 3,4 dichloroisocoumarin, reference compound]
- pIC50 [10]: 5.40

SMILES: CCOP(=O)(CNC(=O)Oc1ccc(C[C@@H]2[C@H](O)[C@@H](O)[C@@H](Cc3ccc(OC)cc3)N(Cc3cccc(N)c3)C(=O)N2Cc2cccc(N)c2)cc1)OCC [R=OCH3, R1=Ph-mNH2, R2=OCONH(CH2)PO3Et2]
- EC50 [9]: 58 nM
- EC50 [1]: 104 nM
- IC50 [11]: 85 nM
- EC50 [2]: 68 nM
- EC50 [3]: 2150 nM
- EC50 [4]: 203 nM
- IC50 [12]: 9.9 nM
- EC50 [5]: 185 nM
- EC50 [6]: 223 nM

SMILES: CCCCN1C(=O)N(Cc2ccc3[nH]nc(N)c3c2)C(Cc2ccccc2)C(O)C(O)C1Cc1ccccc1 (stereo not shown) [CH3 (DMP-851)]
- pEC50 [13]: 7.16
- pEC50 [14]: 7.77
- pEC50 [15]: 7.52
- pEC50 [16]: 7.48
- pEC50 [17]: 7.27
- pIC50 [18]: 8.03
- pEC50 [19]: 7.66
- pEC50 [20]: 6.04

SMILES: CCOC(=O)C(CC)OP(=O)(CCNCc1ccc(C[C@H](NC(=O)O[C@H]2CO[C@H]3OCC[C@H]32)[C@H](O)CN(CC(C)C)S(=O)(=O)c2ccc(OC)cc2)cc1)Oc1ccccc1 (stereo partly shown) [drawing 662 R1=Ph R2=Hba-Et]
- CC50 [7]: 5 to 50 µM
- pEC50 [8]: 6.30 to 7.30

SMILES: CCOC(=O)C(C)NP(=O)(COc1ccc(C[C@@H]2[C@H](O)[C@@H](O)[C@@H](Cc3ccccc3)N(Cc3ccccc3)C(=O)N2Cc2ccccc2)cc1)Oc1ccccc1 (stereo partly shown) [R=H, R1=Ph, R2=Mono-Ala-Et]
- EC50 [9]: 310 nM
- EC50 [1]: 1250 nM
- IC50 [11]: 50 nM
- EC50 [2]: 238 nM
- EC50 [3]: 2940 nM
- EC50 [4]: 1950 nM
- IC50 [12]: 5 nM
- EC50 [5]: 2450 nM
- EC50 [6]: 2850 nM

SMILES: CCOP(=O)(COc1ccc(CC2C(O)C(O)C(Cc3ccc(OC)cc3)N(Cc3ccc(O)cc3)C(=O)N2Cc2ccc(O)cc2)cc1)OCC (stereo not shown) [OCH3, Ph-pOH, OCH2PO3Et2]
- pEC50 [13]: 7.64
- pEC50 [15]: 6.97
- pEC50 [19]: 7.32

SMILES: CCOP(=O)(COc1ccc(CC2C(O)C(O)C(Cc3ccc(OC)cc3)N(Cc3cccnc3)C(=O)N2Cc2cccnc2)cc1)OCC (stereo not shown) [OCH3, m-pyridine, OCH2PO3Et2]
- pEC50 [13]: 6.97
- pEC50 [14]: 6.45
- pEC50 [15]: 6.01
- pEC50 [16]: 5.99
- pEC50 [19]: 6.32
- pEC50 [20]: 6.12

SMILES: CCOP(=O)(COc1ccc(CC(NC(=O)OC2COC3OCCC23)C(O)CN(CC(C)C)S(=O)(=O)c2ccc(OC)cc2)cc1)OCC (stereo not shown) [drawing 651 R1=OEt R2=OEt]
- CC50 [7]: 5 to 50 µM
- pEC50 [8]: > 7.30
